Tests used:
[1] = tested on: genotype 1b (Con-1) HCV replicon in Huh-7 cells; experiment: HCV replicon luciferase assay; format: cell-based; details: 1b replicon, Renilla luciferase, 3 days incubation
Description: The cell lines used to evaluate compounds consist of a human hepatocyte derived cell line (Huh-7) that constitutively expresses a genotype 1b (Con-1) HCV replicon or a genotype 1b (Con-1) HCV replicon with an asparagine replacing the cysteine at amino acid 316, or a genotype 2a (JFH-1) replicon, containing a Renilla luciferase reporter gene. These cells were maintained in Dulbecco's modified Eagle medium (DMEM) containing 10% FBS, 100 U/mL penicillin/streptomycin and 1.0 mg/mL G418.
To evaluate compound efficacy, titrated compounds were transferred to sterile 384-well tissue culture treated plates, and the plates were seeded with HCV replicon cells ([…] at a density of 2.4×10^3 cells/well) in DMEM containing 4% FBS (final DMSO concentration at 0.5%). After 3 days incubation at 37° C., cells were analyzed for Renilla Luciferase activity using the EnduRen substrate (Promega cat #E6485) according to the manufacturer's directions. Briefly, the EnduRen substrate was diluted in DMEM and then added to the plates to a final concentration of 7.5 μM. The plates were incubated for at least 1 h at 37° C. then read on a Viewlux Imager (PerkinElmer) using a luminescence program. The 50% effective concentration (EC50) was calculated using the four-parameter logistic formula noted above.

[2] = biological target: T1, HCV NS5B genotype 1b (Con1) (Hepatitis C virus genotype 1b, UniProt Q9WMX2); experiment: HCV NS5B RdRp enzyme assay; format: biochemical; details: 1b enzyme, 24 hours at 30° C.
T1 construct: Each untagged protein was expressed with an 18 amino acid C-terminal truncation to enhance the solubility; made in house; host or cells: E. coli BL21(DE3), pET21a
Description: The cDNA encoding NS5B proteins of HCV genotype 1b (Con1), a genotype 1b variant with amino acid 316 mutated from cysteine to asparagine, and genotype 2a (JFH-1), were cloned into the pET21a expression vector. Each untagged protein was expressed with an 18 amino acid C-terminal truncation to enhance the solubility. The E. coli competent cell line BL21(DE3) was used for expression of the protein. Cultures were grown at 37° C. for ˜4 hours until the cultures reached an optical density of 2.0 at 600 nm. The cultures were cooled to 20° C. and induced with 1 mM IPTG. Fresh ampicillin was added to a final concentration of 50 μg/mL and the cells were grown overnight at 20° C.
The lysis buffer consisted of 20 mM Tris-HCl, pH 7.4, 500 mM NaCl, 0.5% triton X-100, 1 mM DTT, 1 mM EDTA, 20% glycerol, 0.5 mg/mL lysozyme, 10 mM MgCl2, 15 ug/mL deoxyribonuclease I, and Complete™ protease inhibitor tablets (Roche). After addition of the lysis buffer, frozen cell pellets were resuspended using a tissue homogenizer. To reduce the viscosity of the sample, aliquots of the lysate were sonicated on ice using a microtip attached to a Branson sonicator. The sonicated lysate was centrifuged at 100,000×g for 30 minutes at 4° C. and filtered through a 0.2 μm filter unit (Corning).
The protein was purified using two sequential chromatography steps: Heparin sepharose CL-6B and polyU sepharose 4B. The chromatography buffers were identical to the lysis buffer but contained no lysozyme, deoxyribonuclease I, MgCl2 or protease inhibitor and the NaCl concentration of the buffer was adjusted according to the requirements for charging the protein onto the column. Each column was eluted with a NaCl gradient which varied in length from 5-50 column volumes depending on the column type. […] The enzyme was aliquoted and stored at −80° C.
An on-bead solid phase homogeneous assay was used in a 384-well format to assess NS5B inhibitors (WangY-K, Rigat K, Roberts S, and Gao M (2006) Anal Biochem, 359: 106-111). The biotinylated oligo dT12 primer was captured on streptavidin-coupled imaging beads (GE, RPNQ0261) by mixing primer and beads in 1× buffer and incubating at room temperature for three hours. Unbound primer was removed after centrifugation. The primer-bound beads were resuspended in 3× reaction mix (20 mM Hepes buffer, pH 7.5, dT primer coupled beads, poly A template, ^3H-UTP, and RNAse inhibitor (Promega N2515)). Compounds were serially diluted 1:3 in DMSO and aliquoted into assay plates. Equal volumes (5 μL) of water, 3× reaction mix, and enzyme in 3× assay buffer (60 mM Hepes buffer, pH 7.5, 7.5 mM MgCl2, 7.5 mM KCl, 3 mM DTT, 0.03 mg/mL BSA, 6% glycerol) were added to the diluted compound on the assay plate. Final concentration of components in 384-well assay: 0.36 nM template, 15 nM primer, 0.29 μM ^3H-UTP (0.3 μCi, 1.6 U/μL RNAse inhibitor, 7 nM NS5B enzyme, 0.01 mg/mL BSA, 1 mM DTT, and 0.33 μg/μL beads, 20 mM Hepes buffer, pH 7.5, 2.5 mM MgCl2, 2.5 mM KCl, and 0.1% DMSO.
Reactions were allowed to proceed for 24 hours at 30° C. and terminated by the addition of 50 mM EDTA (5 μL). After incubating for at least 15 minutes, plates were read on an Amersham LEADseeker multimodality imaging system.
IC50 values for compounds were determined using ten different [I]. IC50 values were calculated from the inhibition using the four-parameter logistic formula y=A+((B−A)/(1+((C/x)^D))), where A and B denote minimal and maximal % inhibition, respectively, C is the IC50, D is hill slope and x represents compound concentration.

T1 sequence (Q9WMX2 2420-2992): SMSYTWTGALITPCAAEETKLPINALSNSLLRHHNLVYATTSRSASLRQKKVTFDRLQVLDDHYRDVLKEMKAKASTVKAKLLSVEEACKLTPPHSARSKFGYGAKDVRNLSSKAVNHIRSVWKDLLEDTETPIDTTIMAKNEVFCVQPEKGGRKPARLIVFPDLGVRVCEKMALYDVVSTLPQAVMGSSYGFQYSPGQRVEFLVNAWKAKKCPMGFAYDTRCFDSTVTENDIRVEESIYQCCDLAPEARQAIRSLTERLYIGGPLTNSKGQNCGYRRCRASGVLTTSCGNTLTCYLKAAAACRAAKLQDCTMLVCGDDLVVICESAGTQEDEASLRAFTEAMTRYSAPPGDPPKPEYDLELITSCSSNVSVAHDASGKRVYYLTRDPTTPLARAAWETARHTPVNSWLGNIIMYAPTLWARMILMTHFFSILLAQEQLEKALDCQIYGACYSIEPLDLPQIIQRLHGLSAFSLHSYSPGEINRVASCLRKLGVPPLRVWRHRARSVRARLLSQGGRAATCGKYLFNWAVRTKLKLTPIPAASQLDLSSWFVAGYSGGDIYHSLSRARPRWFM

SMILES | EC50 ([1]; Hepatitis C virus, Huh-7, 72 h) | IC50 [2] | EC50 [1]
CNC(=O)c1c(-c2ccc(F)cc2)oc2nc(NCC(F)(F)F)c(-c3ccc(F)c(C(=O)NC45CC(C4)C5)c3)cc12 | 4.34 nM | 9.08 nM | 
CNC(=O)c1c(-c2ccc(F)cc2)oc2nc(CCC(F)(F)F)c(-c3cc(F)cc(C(=O)NC45CC(C4)C5)c3)cc12 | 10 nM | 30 nM | 
CNC(=O)c1c(-c2ccc(F)cc2)oc2nc(CCC(F)(F)F)c(-c3ccc(OC)c(C(=O)NC45CC(C4)C5)c3)cc12 | 9.23 nM | 10 nM | 
CNC(=O)c1c(-c2ccc(F)cc2)oc2nc(CCC(F)(F)F)c(-c3ccc(F)c(C(=O)NC45CC(C4)C5)c3)cc12 | 5.05 nM | 9.4 nM | 
CNC(=O)c1c(-c2ccc(F)cc2)oc2nc(CCC(F)(F)F)c(-c3cccc(C(=O)NC45CC(C4)C5)c3)cc12 | 4.07 nM | 5.85 nM | 
CCNc1cc2oc(-c3ccc(F)cc3)c(C(=O)NC)c2cc1-c1cc(C(=O)NC23CC(C2)C3)c(F)cc1F | 10 nM | 20 nM | 
CNC(=O)c1c(-c2ccc(F)cc2)oc2nc(OC)c(-c3ccc(F)c(C(=O)NC45CC(C4)C5)c3)cc12 | 20 nM | 90 nM | 
CNC(=O)c1c(-c2ccc(F)cc2)oc2cc(CCC(F)(F)F)c(-c3ccc(F)c(C(=O)NC45CC(C4)C5)c3)cc12 | 10 nM | 30 nM | 
CNC(=O)c1c(-c2ccc(F)cc2)oc2nc(CCC(F)(F)F)c(-c3csc(C(=O)NC45CC(C4)C5)c3)cc12 | 20 nM |  | 
CNC(=O)c1c(-c2ccc(F)cc2)oc2nc(CCC(F)(F)F)c(-c3cncc(C(=O)NC45CC(C4)C5)c3)cc12 | 3.3 nM | 20 nM | 
CCCc1cc2oc(-c3ccc(F)cc3)c(C(=O)NC)c2cc1-c1ccc(F)c(C(=O)NC23CC(C2)C3)c1 | 8.79 nM | 10 nM | 
CNC(=O)c1c(-c2ccc(F)cc2)oc2nc(NCC(F)(F)F)c(-c3ccc(OC)c(C(=O)NC45CC(C4)C5)c3)cc12 | 3.72 nM | 20 nM | 
CNC(=O)c1c(-c2ccc(F)cc2)oc2cc(CCC(F)(F)F)c(-c3cc(C(=O)NC45CC(C4)C5)c(OC)cc3C)cc12 | 40 nM | 50 nM | 
CNC(=O)c1c(-c2ccc(F)cc2)oc2cc(CCC(F)(F)F)c(-c3cc(C(=O)NC45CC(C4)C5)c(F)cc3C)cc12 | 20 nM | 20 nM | 
CCCc1cc2oc(-c3ccc(F)cc3)c(C(=O)NC)c2cc1-c1cc(C(=O)NC23CC(C2)C3)c(F)cc1C | 30 nM | 20 nM | 
CCCc1cc2oc(-c3ccc(F)cc3)c(C(=O)NC)c2cc1-c1cc(C(=O)NC23CC(C2)C3)c(OC)cc1C | 30 nM | 30 nM | 
CNC(=O)c1c(-c2ccc(F)cc2)oc2cc(COC)c(-c3cc(C(=O)NC45CC(C4)C5)c(OC)cc3C)c(F)c12 | 30 nM | 30 nM | 
CNC(=O)c1c(-c2ccc(F)cc2)oc2cc([N+](=O)[O-])c(-c3cccc(C(=O)NC45CC(C4)C5)c3)c(F)c12 | 170 nM | 680 nM | 
CNC(=O)c1c(-c2ccc(F)cc2)oc2ncc(-c3ccc(F)c(C(=O)NC45CC(C4)C5)c3)cc12 | 50 nM | 220 nM | 
CNC(=O)c1c(-c2ccc(F)cc2)oc2nc(NCC(F)(F)F)c(-c3cccc(C(=O)NC45CC(C4)C5)c3)cc12 | 3.58 nM |  | 
CNC(=O)c1c(-c2ccc(F)cc2)oc2nc(N(CC(F)(F)F)S(C)(=O)=O)c(-c3cccc(C(=O)NC45CC(C4)C5)c3)cc12 | 20 nM |  | 
CNC(=O)c1c(-c2ccc(F)cc2)oc2nc(NCC(F)(F)F)c(-c3cc(C(=O)NC45CC(C4)C5)ccc3OC)cc12 | 9.14 nM |  | 

SMILES | EC50 ([1]; Hepatitis C virus, Huh-7, 72 h) | IC50 [2] | EC50 [1]
CNC(=O)c1c(-c2ccc(F)cc2)oc2cc(COC)c(-c3cccc(C(=O)NC45CC(C4)C5)c3)cc12 | 6.21 nM |  | 
CNC(=O)c1c(-c2ccc(F)cc2)oc2cc(CS(C)(=O)=O)c(-c3cccc(C(=O)NC45CC(C4)C5)c3)cc12 | 70 nM |  | 
CNC(=O)c1c(-c2ccc(F)cc2)oc2cc(CCC(F)(F)F)c(-c3cccc(C(=O)NC45CC(C4)C5)c3)cc12 | 30 nM |  | 
CNC(=O)c1c(-c2ccc(F)cc2)oc2cc(CCCOC(=O)c3ccccc3)c(-c3cccc(C(=O)NC45CC(C4)C5)c3)cc12 | 140 nM |  | 
CNC(=O)c1c(-c2ccc(F)cc2)oc2cc(CC(=O)O)c(-c3cccc(C(=O)NC45CC(C4)C5)c3)cc12 | > 10000 nM |  | 
CNC(=O)c1c(-c2ccc(F)cc2)oc2cc(CC(=O)O)c(-c3ccc(F)c(C(=O)NC45CC(C4)C5)c3)cc12 | 8090 nM |  | 
CNC(=O)c1c(-c2ccc(F)cc2)oc2cc(N)c(-c3ccc(OC)c(C(=O)NC45CC(C4)C5)c3)cc12 | 10 nM |  | 
CNC(=O)c1c(-c2ccc(F)cc2)oc2cc(CC(=O)OC)c(-c3ccc(F)c(C(=O)NC45CC(C4)C5)c3)cc12 | 20 nM |  | 
CNC(=O)Cc1cc2oc(-c3ccc(F)cc3)c(C(=O)NC)c2cc1-c1cccc(C(=O)NC23CC(C2)C3)c1 | 50 nM |  | 
CNC(=O)c1c(-c2ccc(F)cc2)oc2cc(CC(=O)N(C)C)c(-c3cccc(C(=O)NC45CC(C4)C5)c3)cc12 | 310 nM |  | 
CNC(=O)c1c(-c2ccc(F)cc2)oc2cc(CC(N)=O)c(-c3ccc(F)c(C(=O)NC45CC(C4)C5)c3)cc12 | 10 nM |  | 
CNC(=O)Cc1cc2oc(-c3ccc(F)cc3)c(C(=O)NC)c2cc1-c1ccc(F)c(C(=O)NC23CC(C2)C3)c1 | 50 nM |  | 
CNC(=O)c1c(-c2ccc(F)cc2)oc2cc(CCC(F)(F)F)c(-c3cccc(C(=O)NC45CC(C4)C5)c3)c(F)c12 | 10 nM |  | 
CNC(=O)c1c(-c2ccc(F)cc2)oc2cc(CC(=O)N(C)C)c(-c3ccc(F)c(C(=O)NC45CC(C4)C5)c3)cc12 | 520 nM |  | 
CNC(=O)c1c(-c2ccc(F)cc2)oc2cc(CS(C)(=O)=O)c(-c3ccc(F)c(C(=O)NC45CC(C4)C5)c3)cc12 | 70 nM |  | 
CNC(=O)c1c(-c2ccc(F)cc2)oc2cc(CCC(F)(F)F)c(-c3ccc(F)c(C(=O)NC45CC(C4)C5)c3)c(F)c12 | 40 nM |  | 
CNC(=O)c1c(-c2ccc(F)cc2)oc2cc(OCC(F)(F)F)c(-c3cccc(C(=O)NC45CC(C4)C5)c3)cc12 | 10 nM |  | 
CNC(=O)c1c(-c2ccc(F)cc2)oc2cc(CCNC(=O)OC)c(-c3cccc(C(=O)NC45CC(C4)C5)c3)cc12 | 20 nM | 20 nM | 
CNC(=O)c1c(-c2ccc(F)cc2)oc2cc(CCNS(C)(=O)=O)c(-c3cccc(C(=O)NC45CC(C4)C5)c3)cc12 | 20 nM | 10 nM | 
CNC(=O)c1c(-c2ccc(F)cc2)oc2cc(OCC(F)(F)F)c(-c3ccc(OC)c(C(=O)NC45CC(C4)C5)c3)cc12 | 10 nM | 4.55 nM | 
CCC(C)c1cc2oc(-c3ccc(F)cc3)c(C(=O)NC)c2cc1-c1cccc(C(=O)NC23CC(C2)C3)c1 (stereo not shown) [drawing 305] |  |  | 20 nM

From US9738653B2, “Fused furans for the treatment of hepatitis C” (BRISTOL-MYERS SQUIBB COMPANY, priority 2013, dated 2017)
